Here are results for six substances from patent publication US20040254131A1, “Method for prevention or treatment of diseases or disorders related to excessive formation of vascular tissue or blood vessels” (priority 2003, published 2004).

One data set has as its system hTERT-HUVEC cells. In words: Endothelial tube formation assay after liposomal transfection. It counts as cell-based, human. To be noted: for mean ±SEM tube number/well, single nucleotide assay 4A / mean ±SEM tube number/well, single nucleotide assay 4b: oligonucleotide 1 μM, DOTAP/DOPE, 4 h transfection, 3 h on Matrigel; for mean ±SEM tube number/well, single nucleotide assay 4A: non-treated control 60±1.8; for mean ±SEM tube number/well, single nucleotide assay 4b: repeated set, non-treated control 58.0±2.9. The procedure:
A further experiment was carried out in order to study the effect of single antisense molecules and their combinations in the prevention of endothelial cell tube formation by immortal human umbilical vein endothelial cells (hTERT-HUVECs).
Immortal human umbilical vein endothelial cells (hTERT-HUVECs) were obtained from Geron Corporation (Menlo Park, Calif., U.S.A.). hTERT-HUVECs were maintained on a gelatin-coated 100-mm dishes (Corning Costar, N.Y., U.S.A) in growth medium, composed of M199 medium (Gibco, Paisley, Scotland) supplement with 15% (v/v) heat-inactivated fetal bovine serum (Gibco BRL), 2 mM L-glutamine (Gibco BRL), 100 units/ml penicillin/streptomycin (Gibco BRL), 10 units/ml heparin (Sigma) and 20 μg/ml endothelial cell growth factor (Roche Biomolecules) at 37° C. in a humified incubator with 5% CO2 atmosphere. Experiments were performed with cells between passages 20 and 24.
The following phosphorothioate oligonucleotides were synthesized: human neuropeptide Y2-receptor mRNA antisense molecules
N-(1-(2,3-dioleoyloxy)propyl)-N,N,N-trimethyl ammonium methylsulfate (DOTAP) and 1,2-dioleoyl-3-phosphatidylethanolamine (DOPE) were purchased from Avanti Polar Lipids. Cationic liposomes composed of DOTAP/DOPE (1:1 by mol) were prepared as previously described (Ruponen et al., 2001 (43)).
hTERT-HUVECs (5×10^4 cells/well) were seeded onto gelatin-coated 48-multiwell plates (Corning Costar, N.Y., U.S.A) and incubated overnight. For transfection, the growth medium was replaced with 400 μl of transfection medium (M199 medium supplement with 2 mM L-glutamine and 100 units/ml penicillin/streptomycin). Oligonucleotides (final concentration 1 μM) and DOTAP/DOPE liposomes in sterile water were first diluted in MES-HEPES buffered saline (50 mM MES, 50 mM HEPES, 75 mM NaCl, pH 7.2) and then mixed together at a charge ratio +1. The transfection mixture was allowed to stand at room temperature for 20 min and the oligonucleotide/liposome complexes (100 μl) were added dropwise to each well.
After transfection for 4 h hTERT-HUVECs were harvested after trypsin treatment, suspended in growth medium (200 μl) and seeded in growth factor-reduced Matrigel (BD Biosciences) coated 96-well plates (Corning Costar, N.Y., U.S.A). After incubation for 3 h cells were fixed in 4% paraformaldehyde. The formation of tubular structures in each well (7 fields/well) was digitally captured using a Nicon Eclipse TE300 Inverted Microscope (Nicon, Tokyo, Japan) equipped with a Nicon F-601 digital camera (Nicon, Tokyo, Japan). Photographs were taken at 4× magnification.
The efficacy in prevention of formation of tubular structures by hTERT-HUVECs of all 5 synthesized antisense molecules were compared against each others alone and in combination. The number of tubular structures was analyzed by using Adobe Photoshop 5.5 (Adobe Systems Inc., San Jose, Calif., U.S.A) and the results were expressed as means ±SEM of three independent experiments. A set of three experiments was repeated.

Another data set deals with rat NPY Y2 mRNA. The data set can be described thus: Hyperoxia/ischemia-induced retinal neovascularization (retinopathy) in newborn rats. To be noted: for retinal capillary vessel formation in fluorescein images (FIG. 3): fluorescence microscopy of flat-mounted retinas; for Mean ± SD of quantitated neovascularization (amount of retinal vessels crossed by a constant length line): newborn Sprague Dawley rats, cyclic hyperoxia 40%/80% then room air, intraperitoneal treatment, eyes collected at age 20 days. It counts as in vivo. An excerpt:
The present study was undertaken to determine the impact of NPY Y2 receptor targeted intervention on neovascularization and development of retinopathy. Development of retinopathy was induced to newborn rats by cyclic hyperoxia and following relative ischemia-induced retinal neovascularization. Hyperoxemia is toxic to developing retinal vessels causing damage and hypoxia in the retina. After moving to normal air, relative hypoxia follows further promoting neovascularization of the retina.
Three groups of rat puppies were subjected for different treatments; 1) vehicle, 2) NPY Y2 receptor targeted antisense oligonucleotide sequence, and 3) scramble oligonucleotide sequence containing the same oligonucleotides as NPY Y2 receptor targeted antisense oligonucleotide sequence. The treatments were administered intraperitoneally. The retinal vessels were investigated and retinopathic changes were compared between treatment groups.
Retinopathy was assessed after injection of fluorescent-labelled dextran to the circulation. The eyes were flat-mounted on slides and the retinal vessels were visualized and investigated by fluorescence microscopy. Statistical differences were calculated between the study groups.
Study protocol was approved by the Joint Ethics Committee of Turku University. Development of retinopathy was induced to newborn rats (Sprague Dawley) by cyclic hyperoxia and following relative ischemia. Hyperoxia is toxic to developing retinal vessels causing damage and hypoxia in the retina, which induces neovascularization. After moving to normal air, relative hypoxia follows further promoting neovascularization of the retina. Hypoxia is one of the major causes of retinal neovascularization in human retinopathies also. The newborn rats were kept in a hyperoxic incubator with their mothers. Retinal neovascularization was induced simultaneously for all three groups of puppies. One treatment group consisted originally of 7 puppies, which underwent cyclic hyperoxia at the age of 3 days, continued until at the age of 14 days and remained in normal room air from the age of 14 to 17 days. The amount of oxygen inside the incubator was kept at 40% and 80% in 12 hour cycles for 10 days (days from 3 to 13).
The three groups of puppies were subjected for different treatments; 1) plain vehicle, 2) NPY Y2 receptor targeted antisense oligodeoxynucleotide sequence (5′-CCTCTGCACCTAATGGGCCC -3′ (SEQ ID NO:38), containing 20 thioate modified bases) diluted in vehicle and 3) scramble oligodeoxynucleotide sequence containing the same deoxynucleotides as NPY Y2 receptor targeted antisense oligodeoxynucleotide sequence but in a random order (5′-CCATGGTAATCCGCCGCTCC-3′ (SEQ ID NO:39), containing 20 thioate modified bases) diluted in vehicle. The treatments were administered intraperitoneally. The retinal vessels were investigated and retinopathic changes were compared between treatment groups. The used NPY Y2 receptor targeted antisense deoxynucleotide sequence was designed complementary to next 20 bases from NPY Y2 gene transcription initiation codon (ATG).
At the age of 20 days, rats were decapitated and eyes were collected. Retinopathy and retinal neovascularization was assessed after an injection of fluorescent-labelled dextran to the circulation trough heart puncture. One eye from each puppy was used for visualization of retinal vessels. The eyes were flat-mounted on slides and the retinal vessels were visualized and investigated by fluorescence microscopy. Pictures of retinas were acquired using a Leica DMR/DC100 microscope and Leica DC Wiever software.
The amount of retinal capillaries was analyzed by counting the amount of vessels crossed by a constant length line using plot profile analysis (Image-J 2.6 program). Each retina was analyzed in 3-5 representative areas and the mean values were used for further statistical analysis. Only unfolded retinal preparations were used in order to avoid artificial images of neovascularization. […]

As for “5′-CCCAGGTTATCCACGTCTCC-3′ (DNA, all phosphorothioate, methylation of C not given here; listed as Homo sapiens) [AS-1 control, control oligonucleotide for AS-1, reference compound]”, in the data set with hTERT-HUVEC cells, the “mean ±SEM tube number/well, single nucleotide assay 4A” value came to 49.3±8.2 tube number/well and the “mean ±SEM tube number/well, single nucleotide assay 4b” value is reported as 57.0±7.0 tube number/well.
“5′-CCTCTGCACCTAATGGGCCC -3′ (antisense CCTCTGCACCTAATGGGCCC; DNA, all phosphorothioate, methylation of C not given here; listed as Rattus sp.) [Y2-antisense, NPY Y2 receptor targeted antisense oligodeoxynucleotide corresponding to rat NPY Y2 mRNA]”: in the data set on rat NPY Y2 mRNA, the “retinal capillary vessel formation in fluorescein images (FIG. 3)” value is “regular and continuous”; the “Mean ± SD of quantitated neovascularization (amount of retinal vessels crossed by a constant length line)” value was found to be 24.58 ± 0.84. The “mean difference in neovascularization compared to vehicle treatment group” value with rat NPY Y2 mRNA (post hoc Tukey HSD, p<0.001, 95% CI 2.48-8.33) is reported as 5.40. Further, in the data set with rat NPY Y2 mRNA (post hoc Tukey HSD, p<0.001, 95% CI 3.76-9.31), the “mean difference in neovascularization compared to scramble treatment group” value is 6.53.
Consider “5′-GGCCACTGTTCTTTCTGACC-3′ (DNA, all phosphorothioate, methylation of C not given here; listed as Homo sapiens) [AS-3, human neuropeptide Y2-receptor mRNA antisense molecule]”, for which the “efficacy in prevention of tubular structures formation by hTERT-HUVECs (ranking in words)” value in the data set with hTERT-HUVEC cells (FIGS. 4A-4D) is given as “best efficacy”. Moreover, in the data set on hTERT-HUVEC cells, the “mean ±SEM tube number/well, single nucleotide assay 4A” value was 28±7.1 tube number/well and the “mean ±SEM tube number/well, single nucleotide assay 4b” value is reported as 23.0±6.7 tube number/well.
For the substance “5′-GTTTGTGGCCCGTATTGTTCC-3′ (DNA, all phosphorothioate, methylation of C not given here; listed as Homo sapiens) [AS-2, human neuropeptide Y2-receptor mRNA antisense molecule]”, in the data set on hTERT-HUVEC cells, the “mean ±SEM tube number/well, single nucleotide assay 4A” value came to 70.3±11.3 tube number/well and the “mean ±SEM tube number/well, single nucleotide assay 4b” value is 75.0±7.5 tube number/well.
For “5′-CCTCTGCACCTATTGGACCC-3′ (DNA, all phosphorothioate, methylation of C not given here; listed as Homo sapiens) [AS-1, human neuropeptide Y2-receptor mRNA antisense molecule]” the same measures were 44.0±5.6 tube number/well and 54.3±10.1 tube number/well.
“5′-CCATGGTAATCCGCCGCTCC-3′ (CCATGGTAATCCGCCGCTCC; DNA, all phosphorothioate, methylation of C not given here; listed as Rattus sp.) [Scramble, scramble oligodeoxynucleotide, same deoxynucleotides as the Y2 antisense in random order, reference compound]”: in the data set with rat NPY Y2 mRNA, the “retinal capillary vessel formation in fluorescein images (FIG. 3)” value was “irregular and disrupted”; the “Mean ± SD of quantitated neovascularization (amount of retinal vessels crossed by a constant length line)” value is given as 31.12 ± 0.93. For the same substance, the “difference in retinal neovascularization versus vehicle treatment group” value with rat NPY Y2 mRNA (post hoc comparison) is reported as “no difference”.
